These results are taken from US10377770B2 (Novartis AG, priority 2015, dated 2019).

pIC50: −log10 of the molar value.

The assay concerns the target C-Raf FL (full length CRAF with Y340E and Y341E activating mutations, co-expressed with h14-3-3 zeta) (Homo sapiens (Human), UniProt P04049, Y340E/Y341E). The assay is described as follows: In vitro Raf activity determination, AlphaScreen p-MEK readout, c-Raf (C-Raf FL). Conditions: c-Raf approximately 4 nM, ATP 1 μM, pre-incubation 60 minutes, reaction 1 hour. Format: biochemical. From the text: Sf9 cells co-expressing both proteins were lysed and subjected to immobilized nickel chromatography and eluted with Imidazole. A second column (StrepII binding column) was used and eluted with desthiobiotin. Protein Tags were removed using Prescission enzyme and the protein was further purified using a flowthrough step to remove tags.
C-Raf TR refers to a truncated C-Raf protein, a Δ1-324 deletion mutant. C-Raf FL refers to the full-length C-Raf protein.
Full length MEK1 with an inactivating K97R ATP binding site mutation is utilized as a RAF substrate. The MEK1 cDNA was subcloned with an N-terminal (his)6 tag into a vector for E. Coli expression. The MEK1 substrate was purified from E. Coli lysate by nickel affinity chromatography followed by anion exchange. The final MEK1 preparation was biotinylated (Pierce EZ-Link Sulfo-NHS-LC-Biotin) and concentrated.
Assay Materials: Assay buffer is 50 mM Tris, pH 7.5, 15 mM MgCl2, 0.01% Bovine Serum Albumin (BSA) and 1 mM dithiothreitol (DTT); Stop buffer is 60 mM ethylenediaminetetraacetic acid (EDTA) and 0.01% Tween® 20; b-Raf (V600E), active; biotinylated Mek, kinase dead; Alpha Screen detection kit (available from PerkinElmer™, #6760617R); Anti phospho-MEK1/2 (available from Cell Signaling Technology, Inc. #9121); 384 well low volume assay plates (White Greiner® plates).
Assay conditions: b-Raf (V600E) approximately 4 pM; c-Raf approximately 4 nM; biotinylated Mek, kinase dead approximately 10 nM; ATP 10 μM for BRAF (V600E) and 1 μM for CRAF; Pre-incubation time with compounds 60 minutes at room temperature; Reaction time 1 or 3 hours at room temperature.
Assay protocol: Raf and biotinylated Mek (kinase dead) were combined at 2× final concentrations in assay buffer (50 mM Tris, pH 7.5, 15 mM MgCl2, 0.01% BSA and 1 mM DTT) and dispensed […] per well in assay plates (Greiner white 384 well assay plates #781207) containing […] of 40× of a Raf kinase inhibitor test compound diluted in 100% DMSO. The plate was incubated for 60 minutes at room temperature. The Raf kinase activity reaction was started by the addition of […] per well of 2×ATP diluted in assay buffer. After 3 hours (b-Raf(V600E)) or 1 hour (c-Raf). The reactions were stopped and the phosphorylated product was measured using a rabbit anti-p-MEK (Cell Signaling, #9121) antibody and the Alpha Screen IgG (ProteinA) detection Kit (PerkinElmer #6760617R), by the addition of […] to the well of a mixture of the antibody (1:2000 dilution) and detection beads (1:2000 dilution of both beads) in Stop/bead buffer (25 mM EDTA, 50 mM Tris, pH 7.5, 0.01% Tween20). The additions were carried out under dark conditions to protect the detection beads from light. A lid was placed on top of the plate and incubated for 1 hour at room temperature, after which the luminescence was read on a PerkinElmer Envision instrument.
On the technique in general: Alpha assays give light when donor and acceptor beads are brought close together.

C-Raf FL (full length CRAF with Y340E and Y341E activating mutations, co-expressed with h14-3-3 zeta), sequence (P04049 whole entry Y340E/Y341E, the tested form may be a part): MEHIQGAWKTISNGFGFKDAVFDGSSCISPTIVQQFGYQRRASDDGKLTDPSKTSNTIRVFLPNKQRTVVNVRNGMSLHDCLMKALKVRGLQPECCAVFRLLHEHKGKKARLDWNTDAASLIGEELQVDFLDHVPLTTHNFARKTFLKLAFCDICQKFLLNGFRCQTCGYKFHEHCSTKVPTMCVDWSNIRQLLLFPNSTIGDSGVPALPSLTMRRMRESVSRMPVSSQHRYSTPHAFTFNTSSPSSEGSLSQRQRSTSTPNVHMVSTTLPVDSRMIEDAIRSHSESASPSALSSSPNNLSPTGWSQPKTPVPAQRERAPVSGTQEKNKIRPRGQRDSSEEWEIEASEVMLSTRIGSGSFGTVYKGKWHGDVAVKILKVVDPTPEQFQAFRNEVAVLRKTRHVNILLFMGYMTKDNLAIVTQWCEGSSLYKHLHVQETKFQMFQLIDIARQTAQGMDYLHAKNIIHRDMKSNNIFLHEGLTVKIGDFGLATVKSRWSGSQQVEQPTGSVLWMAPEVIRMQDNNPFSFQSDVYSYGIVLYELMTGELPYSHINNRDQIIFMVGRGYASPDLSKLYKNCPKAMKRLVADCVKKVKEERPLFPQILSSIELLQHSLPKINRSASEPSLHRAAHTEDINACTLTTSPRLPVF
C-Raf FL (full length CRAF with Y340E and Y341E activating mutations, co-expressed with h14-3-3 zeta), sequence (P63104 whole entry partner, the tested form may be a part): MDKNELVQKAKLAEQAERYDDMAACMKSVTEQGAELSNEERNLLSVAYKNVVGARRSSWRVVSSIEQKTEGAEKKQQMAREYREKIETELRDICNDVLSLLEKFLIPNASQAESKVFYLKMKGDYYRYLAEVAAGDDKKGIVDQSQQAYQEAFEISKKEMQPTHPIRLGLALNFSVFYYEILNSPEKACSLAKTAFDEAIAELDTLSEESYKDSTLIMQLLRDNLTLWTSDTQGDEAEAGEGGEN

Broadly, the pIC50 is the negative decadic logarithm of the IC50, by convention in mol/L. Read a low pIC50 as a large IC50. `Cc1ccc(NC(=O)c2ccnc(C(F)(F)F)c2)cc1-c1cnc2c(c1)N1CCOC[C@@H]1[C@H](C(C)(C)O)C2` [Example 448, N-(3-((4aS,5R)-5-(2-hydroxypropan-2-yl)-1,2,4,4a,5,6-hexahydro-[1,4]oxazino[4,3-a][1,5]naphthyridin-9-yl)-4-methylphenyl)-2-(trifluoromethyl)isonicotinamide]: the pIC50 was 9.70.

With `Cc1ccc(NC(=O)c2ccnc(C(C)(F)F)c2)cc1-c1ccc2c(c1)N1CCOCC1CC2O` (racemic) [Example 6, (rac)-2-(1,1-difluoroethyl)-N-(3-(6-hydroxy-1,2,4,4a,5,6-hexahydro-[1,4]oxazino[4,3-a]quinolin-9-yl)-4-methylphenyl)isonicotinamide], the pIC50 is 10.12.

`CCN1C(=O)O[C@H]2COCC[C@@H]2c2cc(-c3cc(NC(=O)c4ccnc(C(F)(F)F)c4F)ccc3C)cnc21` [Example 304, N-(3-((4aR, 11bR)-7-ethyl-6-oxo-2,4,4a,6,7,11b-hexahydro-1H-pyrano[4,3-f]pyrido[2,3-d][1,3]oxazepin-10-yl)-4-methylphenyl)-3-fluoro-2-(trifluoromethyl) isonicotinamide] showed a pIC50 of 9.30. This pIC50 lies 0.82 log units lower than the previous one.

`Cc1ccc(NC(=O)c2ccnc(C(C)(C)F)c2)cc1-c1cc(F)c2c(c1)N1CCOC[C@H]1[C@](F)(CO)C2` [Example 422, N-(3-((4aS,5S)-5,7-difluoro-5-(hydroxymethyl)-1,2,4,4a,5,6-hexahydro-[1,4]oxazino[4,3-a]quinolin-9-yl)-4-methylphenyl)-2-(2-fluoropropan-2-yl)isonicotinamide] gave a pIC50 of 9.00.

As to `Cc1ccc(NC(=O)c2ccnc(C(C)(F)F)c2)cc1-c1cc2c(cc1F)C[C@](F)(CO)[C@H]1COCCN21` [Example 476, N-(3-((4aR,5R)-5,8-difluoro-5-(hydroxymethyl)-1,2,4,4a,5,6-hexahydro-[1,4]oxazino[4,3-a]quinolin-9-yl)-4-methylphenyl)-2-(1,1-difluoroethyl)iso-nicotinamide], the pIC50 is 9.70. This pIC50 is 0.70 log units higher than that of the compound before.

With `Cc1ccc(NC(=O)c2cncc(C(F)(F)F)c2)cc1-c1ccc2c(c1)N1CCOC[C@H]1[C@](F)(CO)C2` [Example 387, N-(3-((4aS,5S)-5-fluoro-5-(hydroxymethyl)-1,2,4,4a,5,6-hexahydro-[1,4]oxazino[4,3-a]quinolin-9-yl)-4-methylphenyl)-5-(trifluoromethyl)nicotinamide], the pIC50 is 9.52.

`Cc1ccc(NC(=O)c2cncc(C(F)(F)F)c2)cc1-c1cc2c(cc1F)C[C@](F)(CO)[C@@H]1COCCN21` [Example 487, N-(3-((4aS,5R)-5,8-difluoro-5-(hydroxymethyl)-1,2,4,4a,5,6-hexahydro-[1,4]oxazino[4,3-a]quinolin-9-yl)-4-methylphenyl)-5-(trifluoromethyl) nicotinamide] had a negative logarithm of the IC50 (pIC50) of 9.15.

Consider `CCN1C(=O)[C@@H]2COCC[C@@]2(C)c2cc(-c3cc(NC(=O)c4ccnc(C(F)(F)F)c4)ccc3C)cnc21` (relative stereo) [Example 342, N-(3-((4a,10b-trans)-6-ethyl-10b-methyl-5-oxo-2,4,4a,5,6,10b-hexahydro-1H-pyrano[3,4-c][1,8]naphthyridin-9-yl)-4-methylphenyl)-2-(trifluoromethyl)isonicotinamide], for which the pIC50 is 10.00.

For the compound `Cc1ncc(NC(=O)c2cccc(C(F)(F)F)c2)cc1-c1cnc2c(c1)[C@@H]1CCOC[C@H]1C(=O)N2C(C)C` [Example 262, N-(5-((4aS, 10bR)-6-isopropyl-5-oxo-2,4,4a,5,6,10b-hexahydro-1H-pyrano[3,4-c][1,8]naphthyridin-9-yl)-6-methylpyridin-3-yl)-3-(trifluoromethyl) benzamide], the pIC50 was 9.15.

Take `Cc1ccc(NC(=O)c2ccnc(C(F)(F)F)c2F)cc1-c1cnc2c(c1)N1CCOC[C@H]1CC(=O)N2CC(C)(C)O` [Example 290, (R)-3-fluoro-N-(3-(7-(2-hydroxy-2-methylpropyl)-6-oxo-2,4,4a,5,6,7-hexahydro-1H-[1,4]oxazino[4,3-d]pyrido[2,3-b][1,4]diazepin-10-yl)-4-methylphenyl)-2-(trifluoromethyl) isonicotinamide]: the pIC50 is 9.00.

`CCN1C[C@H]2COCCN2c2cc(-c3cc(NC(=O)c4ccnc(C(F)(F)F)c4)ccc3C)cnc2C1=O` [Example 496, (S)-N-(3-(6-ethyl-7-oxo-1,2,4a,5,6,7-hexahydro-4H-[1,4]oxazino[4,3-a]pyrido[2,3-f][1,4]diazepin-10-yl)-4-methylphenyl)-2-(trifluoromethyl)iso-nicotinamide]: the pIC50 was 9.15.

`Cc1ccc(NC(=O)c2ccnc(C(C)(F)F)c2)cc1-c1cnc2c(c1)N1CCOC[C@H]1C(F)(F)[C@H]2O` [Example 164, N-(3-((4aS,6S)-5,5-difluoro-6-hydroxy-1,2,4,4a,5,6-hexahydro-[1,4]oxazino[4,3-a][1,5]naphthyridin-9-yl)-4-methylphenyl)-2-(1,1-difluoroethyl)isonicotinamide] gave a pIC50 of 9.37.

For the compound `Cc1ccc(NC(=O)c2cnnc(C(F)(F)F)c2)cc1-c1ccc2c(c1)N1CCOCC1CC2O` (racemic) [Example 10, (rac)-N-(3-(6-hydroxy-1,2,4,4a,5,6-hexahydro-[1,4]oxazino[4,3-a]quinolin-9-yl)-4-methylphenyl)-6-(trifluoromethyl)pyridazine-4-carboxamide], the pIC50 is 10.44.

In turn, `CCN1C(=O)OC2COCCC2c2cc(-c3cc(NC(=O)c4ccnc(C(F)(F)F)c4F)ccc3C)cnc21` [Example 299, N-(3-((4aS,11bR- cis)-7-ethyl-6-oxo-2,4,4a,6,7,11b-hexahydro-1H-pyrano[4,3-f]pyrido[2,3-d][1,3]oxazepin-10-yl)-4-methylphenyl)-3-fluoro-2-(trifluoromethyl) isonicotinamide] showed a pIC50 of 10.00.

As to `Cc1ncc(NC(=O)c2cccc(C(F)(F)F)c2)cc1-c1cnc2c(c1)N1CCOC[C@H]1C[C@@]2(C)O` (racemic) [Example 43, (rac)-(trans)-N-(5-(6-hydroxy-6-methyl-1,2,4,4a,5,6-hexahydro-[1,4]oxazino[4,3-a][1,5]naphthyridin-9-yl)-6-methylpyridin-3-yl)-3-(trifluoromethyl)benzamide], the pIC50 was 11.09. This pIC50 lies 1.09 log units higher than the previous one.

Regarding `Cc1ccc(NC(=O)c2ccnc(C(C)(F)F)c2)cc1-c1ccc2c(c1)N1CCOC[C@@H]1[C@](C)(C#N)C2` [Example 374, N-(3-((4aS,5R)-5-cyano-5-methyl-1,2,4,4a,5,6-hexahydro-[1,4]oxazino[4,3-a]quinolin-9-yl)-4-methylphenyl)-2-(1,1-difluoroethyl)isonicotinamide], the pIC50 was 9.70.

In turn, `Cc1ccc(NC(=O)c2cnnc(C(F)(F)F)c2)cc1-c1cc(F)c2c(c1)N1CCOC[C@H]1[C@@](F)(CO)C2` [Example 433, N-(3-((4aS,5R)-5,7-difluoro-5-(hydroxymethyl)-1,2,4,4a,5,6-hexahydro-[1,4]oxazino[4,3-a]quinolin-9-yl)-4-methylphenyl)-6-(trifluoromethyl)pyridazine-4-carboxamide] showed a pIC50 of 10.00.

`Cc1ccc(NC(=O)c2ccnc(C(C)(F)F)c2)cc1-c1ccc2c(c1)N1CCOC[C@H]1[C@](F)(CO)C2` [Example 80, 2-(1,1-difluoroethyl)-N-(3-((4aS,5S)-5-fluoro-5-(hydroxymethyl)-1,2,4,4a,5,6-hexahydro-[1,4]oxazino[4,3-a]quinolin-9-yl)-4-methylphenyl)isonicotinamide] showed a pIC50 of 9.38.

Take `Cc1ccc(NC(=O)c2ccnc(C(C)(F)F)c2)cc1-c1cc2c(nn1)OC(C)(C)[C@@H]1COCCN21` [Example 137, (S)-2-(1,1-Difluoroethyl)-N-(3-(6,6-dimethyl-6a,7,9,10-tetrahydro-6H-[1,4]oxazino[4,3-d]pyridazino[3,4-b][1,4]oxazin-2-yl)-4-methylphenyl)isonicotinamide]: the pIC50 was 9.62.

Compound `Cc1ccc(NC(=O)c2ccnc(C(C)(F)F)c2)cc1-c1cnc2c(c1)N1CCOC[C@H]1C[C@H]2OCCO` [Example 513, 2-(1,1-difluoroethyl)-N-(3-((4aR,6R)-6-(2-hydroxyethoxy)-1,2,4,4a,5,6-hexahydro-[1,4]oxazino[4,3-a][1,5]naphthyridin-9-yl)-4-methylphenyl)iso-nicotinamide] showed a pIC50 of 10.00.
